Assay results from patent publication US10681909B2, “Herbicidal triazoles” (FMC Corporation, priority 2014, dated 2020).

Columns and labels:
crabgrass, large = assay: Test A preemergence; format: in vivo, Digitaria sanguinalis; details: Digitaria sanguinalis, pre-emergence, 240 h, 0 to 100 scale (0 no effect, 100 complete control), read-out: Plant response rating, Crabgrass, Large; for pest or weed control at 125 g/ha: 125 g ai/ha; for pest or weed control at 500 g/ha: 500 g ai/ha, approx. 10 d
Procedure, shortened: (§1)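 Test chemicals in a non-phytotoxic solvent with surfactant were applied as a directed soil spray preemergence to seeds sown in loam/sand. Postemergence sprays went to plants 2–10 cm tall at the one- to two-leaf stage. A dash means no result.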

velvetleaf [1] = assay: Test A preemergence; format: in vivo, Abutilon theophrasti; details: Abutilon theophrasti, pre-emergence, 240 h, 0 to 100 scale (0 no effect, 100 complete control), read-out: Plant response rating, Velvetleaf; for pest or weed control at 125 g/ha: 125 g ai/ha; for pest or weed control at 500 g/ha: 500 g ai/ha, approx. 10 d
Procedure, shortened: as §1

velvetleaf [2] = assay: Test A postemergence; format: in vivo, Abutilon theophrasti; details: Abutilon theophrasti, post-emergence, 240 h, 0 to 100 scale (0 no effect, 100 complete control), approx. 10 d, read-out: Plant response rating, Velvetleaf; for pest or weed control at 125 g/ha: 125 g ai/ha; for pest or weed control at 500 g/ha: 500 g ai/ha
Procedure, shortened: as §1

wheat (winter wheat) = assay: Test C preemergence; format: in vivo, Triticum aestivum; details: for Wheat plant response rating (0 to 100): Preemergence, visual rating after 13 to 15 d; for Plant response rating (scale of 0 to 100 where 0 is no effect and 100 is complete control): Wheat, preemergence, 250 g ai/ha
Description: (§2) Seeds of plant species selected from blackgrass (Alopecurus myosuroides), ryegrass, Italian (Italian ryegrass, Lolium multiflorum), wheat (winter wheat, Triticum aestivum), galium (catchweed bedstraw, Galium aparine), corn (Zea mays), crabgrass, large (large crabgrass, Digitaria sanguinalis), foxtail, giant, (giant foxtail, Setaria faberii), johnsongrass (Sorghum halepense), lambsquarters (Chenopodium album), morningglory (Ipomoea coccinea), nutsedge, yellow (yellow nutsedge, Cyperus esculentus), pigweed (Amaranthus retroflexus), ragweed (common ragweed, Ambrosia elatior), soybean (Glycine max), barnyardgrass (Echinochloa crus-galli), oilseed rape (Brassica napus), waterhemp (common waterhemp, Amaranthus rudis), and velvetleaf (Abutilon theophrasti) were planted into a blend of loam soil and sand and treated preemergence with test chemicals formulated in a non-phytotoxic solvent mixture which included a surfactant. At the same time, plants selected from these crop and weed species and also chickweed (common chickweed, Stellaria media), oat, wild (wild oat, Avena fatua), and kochia (Kochia scoparia), were planted in pots containing Sunshine Redi-Earth® planting medium comprising spaghnum peat moss, vermiculite, starter nutrients and dolomitic limestone and treated with postemergence applications of test chemicals formulated in the same manner. Plants ranged in height from 2 to 18 cm (1- to 4-leaf stage) for postemergence treatments. […] A dash (-) response means no test result.

corn = assay: Test C preemergence; format: in vivo, Zea mays; details: for Plant response rating (scale of 0 to 100 where 0 is no effect and 100 is complete control): Corn, preemergence; for Corn plant response rating (0 to 100): Preemergence, visual rating after 13 to 15 d
Description: as §2

morningglory = assay: Test C preemergence; format: in vivo, Ipomoea coccinea; details: for Plant response rating (scale of 0 to 100 where 0 is no effect and 100 is complete control): Morningglory, preemergence; for Morningglory plant response rating (0 to 100): Preemergence, visual rating after 13 to 15 d
Description: as §2

barnyardgrass = assay: Test C preemergence; format: in vivo, Echinochloa crus-galli; details: for Plant response rating (scale of 0 to 100 where 0 is no effect and 100 is complete control): Barnyardgrass, preemergence; for Barnyardgrass plant response rating (0 to 100): Preemergence, visual rating after 13 to 15 d
Description: as §2

oilseed rape = assay: Test C preemergence; format: in vivo, Brassica napus; details: for Plant response rating (scale of 0 to 100 where 0 is no effect and 100 is complete control): Oilseed Rape, preemergence; for Oilseed Rape plant response rating (0 to 100): Preemergence, visual rating after 13 to 15 d
Description: as §2

bluegrass = assay: Test D preemergence; format: in vivo, Poa annua; details: for Plant response rating: Bluegrass: scale 0 to 100
Description: (§3) Seeds of plant species selected from bluegrass (annual bluegrass, Poa annua), blackgrass (Alopecurus myosuroides), canarygrass (Phalaris minor), chickweed (common chickweed, Stellaria media), galium (catchweed bedstraw, Galium aparine), bromegrass, down (downy bromegrass, Bromus tectorum), Russian thistle (Salsola kali), field poppy (Papaver rhoeas), field violet (Viola arvensis), foxtail, green (green foxtail, Setaria viridis), deadnettle (henbit deadnettle, Lamium amplexicaule), ryegrass, Ital. (Italian ryegrass, Lolium multiflorum), kochia (Kochia scoparia), lambsquarters (Chenopodium album), oilseed rape (Brassica napus), pigweed (Amaranthus retroflexus), chamomile (scentless chamomile, Matricaria inodora), speedwell (bird's-eye speedwell, Veronica persica), barley, spring (spring barley, Hordeum vulgare), wheat, spring (spring wheat, Triticum aestivum), buckwheat, wild (wild buckwheat, Polygonum convolvulus), wild mustard (Sinapis arvensis), oat, wild (wild oat, Avena fatua), radish, wild (wild radish, Raphanus raphanistrum), […]), barley, winter (winter barley, Hordeum vulgare), and wheat, winter (winter wheat, Triticum aestivum) were planted into a silt loam soil and treated preemergence with test chemicals formulated in a non-phytotoxic solvent mixture which included a surfactant. At the same time, these species were planted in pots containing Sunshine Redi-Earth® planting medium comprising spaghnum peat moss, vermiculite, starter nutrients and dolomitic limestone and treated with postemergence applications of the test chemicals formulated in the same manner. Plants ranged in height from 2 to 18 cm (1- to 4-leaf stage). Treated plants and controls were maintained in a controlled growth environment for 14 to 21 d after which time all species were compared to controls and visually evaluated. […] A dash (-) response means no test result.

field violet = assay: Test D preemergence; format: in vivo, Viola arvensis; details: for Plant response rating: Field Violet: scale 0 to 100
Description: as §3

foxtail, green = assay: Test D preemergence; format: in vivo, Setaria viridis; details: for Plant response rating: Foxtail, Green: scale 0 to 100
Description: as §3

kochia = assay: Test D preemergence; format: in vivo, Kochia scoparia; details: for Plant response rating: Kochia: scale 0 to 100
Description: as §3

Russian thistle = assay: Test D preemergence; format: in vivo, Salsola kali; details: for Plant response rating: Russian Thistle: scale 0 to 100
Description: as §3

[3] = 16 g ai/ha, 0 is no effect, 100 is complete control

Compound | pest or weed control at 125 g/ha (crabgrass, large) | pest or weed control at 500 g/ha (crabgrass, large) | pest or weed control at 125 g/ha (velvetleaf [1]) | pest or weed control at 500 g/ha (velvetleaf [1]) | pest or weed control at 125 g/ha (velvetleaf [2]) | pest or weed control at 500 g/ha (velvetleaf [2]) | Wheat plant response rating (0 to 100) (wheat (winter wheat); 31 g ai/ha) | Wheat plant response rating (0 to 100) (wheat (winter wheat); 62 g ai/ha) | Plant response rating (scale of 0 to 100 where 0 is no effect and 100 is complete control) (wheat (winter wheat)) | Plant response rating (scale of 0 to 100 where 0 is no effect and 100 is complete control) (corn; 125 g ai/ha) | Plant response rating (scale of 0 to 100 where 0 is no effect and 100 is complete control) (corn; 250 g ai/ha) | Plant response rating: Bluegrass (bluegrass; 31 g ai/ha) | Plant response rating: Bluegrass (bluegrass; 62 g ai/ha) | Plant response rating: Bluegrass (bluegrass; 125 g ai/ha) | Plant response rating: Field Violet (field violet; 62 g ai/ha) | Plant response rating: Field Violet (field violet; 125 g ai/ha) | Plant response rating: Foxtail, Green (foxtail, green; 62 g ai/ha) | Plant response rating: Foxtail, Green (foxtail, green; 125 g ai/ha) | Plant response rating: Kochia (kochia; 62 g ai/ha) | Plant response rating: Kochia (kochia; 125 g ai/ha) | other results
CCc1nc(-c2ccc(C(F)(F)F)cc2)nn1Cc1ccnc(C(F)(F)F)c1 [Compound 1, 4-[[5-ethyl-3-[4-(trifluoromethyl)phenyl]-1H-1,2,4-triazol-1-yl]methyl]-2-(trifluoromethyl)pyridine] | 100% | 100% | 30% | 100% | 90% | 100% | 0 | 0 | 5 | 25 | 40 | 10 | 35 | 60 | 95 | 100 | 100 | 100 | 70 | 100 | Corn plant response rating (0 to 100) (corn; 31 g ai/ha): 5; Corn plant response rating (0 to 100) (corn; 62 g ai/ha): 15; Plant response rating (scale of 0 to 100 where 0 is no effect and 100 is complete control) (morningglory; 125 g ai/ha): 55; Plant response rating (scale of 0 to 100 where 0 is no effect and 100 is complete control) (morningglory; 250 g ai/ha): 90; Morningglory plant response rating (0 to 100) (morningglory; 31 g ai/ha): 20; Morningglory plant response rating (0 to 100) (morningglory; 62 g ai/ha): 55; Plant response rating (scale of 0 to 100 where 0 is no effect and 100 is complete control) (barnyardgrass; 125 g ai/ha): 55; Plant response rating (scale of 0 to 100 where 0 is no effect and 100 is complete control) (barnyardgrass; 250 g ai/ha): 70; Barnyardgrass plant response rating (0 to 100) (barnyardgrass; 31 g ai/ha): 10; Barnyardgrass plant response rating (0 to 100) (barnyardgrass; 62 g ai/ha): 35; Plant response rating (scale of 0 to 100 where 0 is no effect and 100 is complete control) (oilseed rape; 125 g ai/ha): 100; Plant response rating (scale of 0 to 100 where 0 is no effect and 100 is complete control) (oilseed rape; 250 g ai/ha): 100; Oilseed Rape plant response rating (0 to 100) (oilseed rape; 31 g ai/ha): 25; Oilseed Rape plant response rating (0 to 100) (oilseed rape; 62 g ai/ha): 90; Plant response rating: Bluegrass (bluegrass; 250 g ai/ha): 100; Plant response rating: Field Violet (field violet; 250 g ai/ha): 100; Plant response rating: Foxtail, Green (foxtail, green; 250 g ai/ha): 100; Plant response rating: Kochia (kochia; 250 g ai/ha): 100
CCOc1nc(-c2ccc(F)cc2)nn1Cc1ccnc(C(F)(F)F)c1 [Compound 8, 4-[[5-ethoxy-3-(4-fluorophenyl)-1H-1,2,4-triazol-1-yl]methyl]-2-(trifluoromethyl)pyridine] | 100% | 100% | 70% | 90% | 90% | 100% | 35 | 45 | 80 | 65 | 65 | 70 | 70 | 100 | 100 | 100 | 100 | 100 | 100 | 100 | Corn plant response rating (0 to 100) (corn; 31 g ai/ha): 35; Corn plant response rating (0 to 100) (corn; 62 g ai/ha): 55; Plant response rating (scale of 0 to 100 where 0 is no effect and 100 is complete control) (morningglory; 125 g ai/ha): 98; Plant response rating (scale of 0 to 100 where 0 is no effect and 100 is complete control) (morningglory; 250 g ai/ha): 100; Morningglory plant response rating (0 to 100) (morningglory; 31 g ai/ha): 85; Morningglory plant response rating (0 to 100) (morningglory; 62 g ai/ha): 100; Plant response rating (scale of 0 to 100 where 0 is no effect and 100 is complete control) (barnyardgrass; 125 g ai/ha): 100; Plant response rating (scale of 0 to 100 where 0 is no effect and 100 is complete control) (barnyardgrass; 250 g ai/ha): 100; Barnyardgrass plant response rating (0 to 100) (barnyardgrass; 31 g ai/ha): 98; Barnyardgrass plant response rating (0 to 100) (barnyardgrass; 62 g ai/ha): 100; Plant response rating (scale of 0 to 100 where 0 is no effect and 100 is complete control) (oilseed rape; 125 g ai/ha): 100; Plant response rating (scale of 0 to 100 where 0 is no effect and 100 is complete control) (oilseed rape; 250 g ai/ha): 100; Oilseed Rape plant response rating (0 to 100) (oilseed rape; 31 g ai/ha): 95; Oilseed Rape plant response rating (0 to 100) (oilseed rape; 62 g ai/ha): 95; Plant response rating: Bluegrass (bluegrass; 250 g ai/ha): 100; Plant response rating: Field Violet (field violet; 250 g ai/ha): 100; Plant response rating: Foxtail, Green (foxtail, green; 250 g ai/ha): 100; Plant response rating: Kochia (kochia; 250 g ai/ha): 100
COc1nc(-c2ccc(Cl)cc2)nn1Cc1ccnc(C(F)(F)F)c1 [Compound 28] |  |  |  |  |  |  |  |  |  |  |  | 35 | 45 | 85 | 95 | 100 | 85 | 100 | 85 | 95 | Plant response rating (0 to 100), Bluegrass (bluegrass; [3]): 25; Plant response rating (0 to 100), Russian Thistle (Russian thistle; [3]): 70; Plant response rating: Russian Thistle (Russian thistle; 62 g ai/ha): 85; Plant response rating: Russian Thistle (Russian thistle; 125 g ai/ha): 85; Plant response rating (0 to 100), Field Violet (field violet; [3]): 65; Plant response rating (0 to 100), Foxtail, Green (foxtail, green; [3]): 80; Plant response rating (0 to 100), Kochia (kochia; [3]): 85
